From US20120309798A1, “Tumour Treatment Agents and Method” (Vivolux AB, priority 2009, published 2012)

Key:
[1] = tested on: cells from CLL and normal PBMC; test: Tumor cell specificity: drug effect in CLL cells versus normal PBMC, FMCA; assay type: cell-based, human; settings: PBMC n=4, CLL n=9; FIG. 2c
From the text: Cell culture. Patient tumor samples (98) and preparations (4) of normal peripheral blood mononuclear cells (PBMC), detailed in Table 1, were used to determine the activity of VLX50 and, for comparison, six other cytotoxic drugs chosen to represent different mechanistic classes.
The tumor samples were obtained by bone marrow/peripheral blood sampling, routine surgery or diagnostic biopsy. Leukemic cells and PBMCs were isolated by 1.077 g ml-1 Ficoll-Paque centrifugation (Larsson et al., 1992). Tumor tissue from solid tumor samples was minced into small pieces and tumor cells were isolated by collagenase dispersion followed by Percoll density gradient centrifugation (Csoka et al., 1994). The sampling of primary tumor cells was approved by the local ethics committee at Uppsala University Hospital. Cell viability was determined by trypan blue exclusion test and the proportion of tumor cells in the preparation was judged by inspection of May-Grunvald-Giemsa stained cytospin slides (FIG. 1a). All samples used in this study contained more than 70% tumor cells.
Fluorometric Microculture Cytotoxicity Assay. The Fluorometric Microculture Cytotoxicity Assay, FMCA, described in detail previously (Lindhagen et al., 2008), is based on measurement of fluorescence generated from hydrolysis of fluorescein diacetate (FDA) to fluorescein by cells with intact plasma membranes. Cells were seeded in the drug-prepared 384-well plates using the pipetting robot Precision 2000 (Bio-Tek Instruments Inc., Winooski, Vt.). The number of cells per well were 2500-5000. Two columns without drugs served as controls and one column with medium only served as blank. The plates were incubated for 72 h and then transferred to an integrated HTS SAIGAN Core System consisting of an ORCA robot (Beckman Coulter) with CO2 incubator (Cytomat 2C, Kendro, Sollentuna, Sweden), dispensor module (Multidrop 384, Titertek, Huntsville, Ala.), washer module (ELx 405, Bio-Tek Instruments Inc), delidding station, plate hotels, barcode reader (Beckman Coulter), liquid handler (Biomek 2000, Beckman Coulter) and a multipurpose reader (FLUOstar Optima, BMG Labtech GmbH, Offenburg, Germany) for automated FMCA. Quality criteria for a successful assay included a mean coefficient of variation of less than 30% in the control and a fluorescence signal in control wells of more than 5 times the blank.
Dose-response data were analyzed using calculated survival index values and the software program GraphPadPrism4 (GraphPad Software Inc., San Diego, Calif., USA). Data was processed using non-linear regression to a standard sigmoidal dose-response model to obtain IC50-values (inhibitory concentration 50%).
In FIG. 2a the response rates for VLX50 at 4 μM for the patient samples are listed according to diagnoses. […] Lung cancer, AML and CML had intermediate response rates. The relative effect of VLX50 and six standard cytotoxic drugs, in solid and hematological tumor samples, expressed as the S/H ratio, is shown in FIG. 2b. […] The results for the standard drugs are consistent with their main clinical use.

MCF-7 tumor cells = test: Mode of cell death: time lapse phase contrast microscopy and multiparametric HCS (Arrayscan II); assay type: cell-based
Description: Multiparametric high content screening assays. To study the cell death characteristics a multi-parametric high content screening (HCS) assay was used (Cellomics cytotoxicity HitKit™) and an HCS assay for measurement of apoptosis, which has been described in detail previously (Lovborg et al., 2004). The cells (1500 cells/well) were seeded into flat-bottomed 96-well plates (Perkin Elmer Inc., Wellesley, Mass.) and were left to attach before addition of drugs. For the cytotoxicity assay the cytotoxicity HitKit™ reagents (Cellomics Inc., Pittsburgh, Pa., USA) was used according to the manufacturer's instructions. Multi-parameter cytotoxicity HitKit™ contains a nuclear dye, a cell permeability dye, and a lysosomal mass/pH indicator. In the apoptosis assay FAM-DEVD-FMK (part of the CaspaTag Kit, Chemicon, Temecula, Calif.) at a final concentration of 20 μM was added one hour before the end of the drug exposure to stain activated caspase-3 and partly caspase-7. The staining solution was removed and the plates were washed twice with PBS followed by a 30 min fixation in 3.7% formaldehyde and nuclear staining with 10 μM Hoechst 33342 (Sigma). Plates were then washed twice. The plates were centrifuged before each aspiration to avoid loss of cells detached due to toxic stimuli. Processed plates were kept at +4° C. for up to 24 h before analysis. Plates were analyzed using the ArrayScan™ HCS software (Cellomics Inc). The system is a computerized automated fluorescence-imaging microscope that automatically identifies stained cells and reports the intensity and distribution of fluorescence in individual cells. Images were acquired for each fluorescence channel, using suitable filters with 20× objective. In each well at least 800 cells were analyzed. Images and data were stored in a Microsoft SQL database.
Phase contrast microscopy. Time lapse phase contrast microscopy was performed using an automated Incucyte phase contrast microscope. MCF-7 cells (10,000/well) were plated on 24-well ImageLock plates (Essen Instruments, Ann Arbor, Mich.) and cultured in RPMI 1640 media containing 10% fetal bovine serum and antibiotics. The plates were immediately placed into IncuCyte imaging system (Essen Instruments). The chamber is designed to fit into a standard, humidified, CO2 incubator in an atmosphere of 5% CO2, and a moving objective allows the cell culture to be stationary while images are captured at different positions from well to well. Images were collected at hourly intervals starting 30 minutes after addition of the plate to the IncuCyte-FLR chamber. Drug treatment was performed 24 hours after the plates were placed in the Incucyte. Cell density was calculated using the Incucyte software. […]

COCCCNC(=S)N/N=C\c1ccccn1 [VLX50, N1-(3-methoxypropyl)-2-(pyridylmethylidene)-hydrazine-1-carbothioamide]
PBMC/CLL median IC50 ratio [1]: 7.6 | Caspase-3 activity (MCF-7 tumor cells; MCF-7, 48-72 h): increase | Cell density (MCF-7 tumor cells; MCF-7, 48-72 h): gradual decrease | DNA fragmentation (MCF-7 tumor cells; MCF-7, 48-72 h): increase | Effect on growth and viability (MCF-7 tumor cells; MCF-7, 24 h): little or no effect
